Measured values as given in patent US9226506B2, “Methods of weed control in chicory” (Dow AgroSciences LLC, priority 2013, dated 2016).

Assays:
[1] = test system: Artemisia biennis (biennial wormwood), ARTRI; assay: Field trial, post-emergence weed control in chicory; type: in vivo; settings: 3 trials, 30 days after last application
Protocol: (§1) Field trials were conducted in Northern France and Belgium, both of which are major areas for root chicory and whitloof chicory production. Trials were conducted in accordance with EPPO standard PP 1/99(3) entitled “Weeds in Roots Vegetables,” PP 1/152(4) entitled “Design and Analysis of Efficacy Evaluation Trials,” PP 1/135(3) entitled “Phytotoxic Assessment,” and PP 1/181(4) entitled “Conduct and Reporting of Efficacy Evaluation Trials Including Good Experimental Practice,” all of which are incorporated herein by reference in their entirety.
(§2) Application to all field trials was made using a small plot precision sprayer operating at between 160-400 kilopascals (kPa) pressure, delivering a spray volume of 150-400 liters per hectare (L/ha). Nozzles were of a flat fan type. Trial plot size ranged from 4.5×2.5 square meters (m^2) to 10.5×2.5 m^2. Plots were replicated 3 or 4 times and were arranged in a randomized block design within each trial. All trials received a pre-emergence application of BONALAN® at 6 L/ha (benfluralin; 180 grams active ingredient per liter (g ai/L); commercially available from Dow AgroSciences LLC) with incorporation to prevent the emergence of grasses which could complicate the assessment of broadleaf control.
(§3) In whitloof chicory (Cichorium intybus), treatments were evaluated which included either two or three post-emergence applications of herbicide. Multiple applications of herbicide were evaluated for their ability to control weed emergence during the extended period of time required for chicory cultivation. Trials included different combinations of application rate and application timing. Broadcast applications were made from May to July, covering a range of possible application timings. Penoxulam was applied at a maximum total rate of 15 g/ha per season, applied in two or three applications with a minimum of seven days between applications. Treatment with penoxsulam involved application of either BOA® or VIPER® (2.14% weight per weight (w/w) oil dispersions of penoxsulam commercially available from Dow AgroSciences LLC). Trials were also conducted using another ALS mode-of-action herbicide (i.e., the sulfonylurea triflusulfuron-methyl). Triflusulfuron-methyl was applied at a maximum total rate of 30 g/ha per season, applied in two or three applications with a minimum of seven days between applications. Treatment with triflusulfuron-methyl involved application of SAFARI® (triflusulfuron-methyl; commercially available from DuPont Crop Protection).
(§4) Prior to treatment application, assessments of weed populations (number of plants per m^2) were carried out using a quadrant square and an appropriate number of sampling points.
(§5) 1) Visual rating in percent of the overall volume reduction of vegetation for each species compared to the nearest untreated plot (Plant/Control/% visual; 0%=no control; 100%=all weeds dead). Assessments of this type were performed by Dow AgroSciences LLC in France.
(§6) Assessments of weed control were carried out at 14, 28, 56 and 84 days or longer after each application timing (DAAA=days after application A, DAAB=days after application B or DAAC=days after application C).

[2] = test system: Coronopus didymus (lesser swinecress), COPDI; assay: as above; type: in vivo; settings: 2 trials, 30 days after last application
Protocol: as §1, §2, §3, §4, §5, §6

[3] = test system: Galinsoga ciliata (shaggy soldier) / Galinsoga parviflora (potato weed), GASCI-GASPA; assay: as above; type: in vivo; settings: 4 trials, 30 days after last application
Protocol: as §1, §2, §3, §4, §5, §6

[4] = test system: Capsella bursa-pastoris (shepherd's purse), CAPBP; assay: as above; type: in vivo; settings: 2 trials, 30 days after last application
Protocol: as §1, §2, §3, §4, §5, §6

[5] = test system: Senecio vulgaris (common groundsel), SENVU; assay: as above; type: in vivo; settings: 1 trial, 30 days after last application
Protocol: as §1, §2, §3, §4, §5, §6

undesirable vegetation = assay: Weed control field trials, overall statement; type: in vivo; settings: applied post-emergence to the crop and weeds
Protocol: as §1
(§7) Application to all field trials was made using a small plot precision sprayer operating at between 160-400 kilopascals (kPa) pressure, delivering a spray volume of 150-400 liters per hectare (L/ha). Nozzles were of a flat fan type. Trial plot size ranged from 4.5×2.5 square meters (m^2) to 10.5×2.5 m^2. […]
(§8) In whitloof chicory (Cichorium intybus), treatments were evaluated which included either two or three post-emergence applications of herbicide. Multiple applications of herbicide were evaluated for their ability to control weed emergence during the extended period of time required for chicory cultivation. […]
3) Following treatments, the remaining plants were weighed to determine the mass per plant (expressed as g/plant) one month after the last pesticide application. […]

[6] = test system: chicory (varieties Ecrine, Hermès); assay: Chicory root development (number of roots) after post-emergence applications; type: in vivo, Cichorium intybus; settings: treatment with penoxsulam in chicory field trials
Protocol: Field trials were conducted in Northern France and Belgium, both of which are major areas for root chicory and whitloof chicory production. Trials were conducted in accordance with EPPO standard PP 1/99(3) entitled “Weeds in Roots Vegetables,” PP 1/152(4) entitled “Design and Analysis of Efficacy Evaluation Trials,” PP 1/135(3) entitled “Phytotoxic Assessment,” and PP 1/181(4) entitled “Conduct and Reporting of Efficacy Evaluation Trials Including Good Experimental Practice,” all of which are incorporated herein by reference in their entirety. […]
as §8
Harvest was carried out 171 DAAC on 4 rows per plot. After harvest, the roots were counted and weighted, and the percent of roots usable for forcing was measured. […] The brut yield (total weight of chicons produced; marketable+non-marketable), net yield (weight of marketable chicons produced) and best class yield (Extra+1=weight of Extra and First Class chicons produced) were measured (in kilograms per 10 square meters (kg/10 m^2)).

[7] = test system: chicory (varieties Ecrine, Hermès); assay: Chicory leaf development after post-emergence applications; set-up: species or system Cichorium intybus; settings: in vivo
Protocol: as §1
as §7, with “m^2. Plots were replicated 3 or 4 times and were arranged in a randomized block design within each trial.” for “m^2.”
as §8

chicory = test system: chicory; set-up: species or system Cichorium intybus; settings: in vivo
Protocol: as §1
as §7, with “m^2. Plots were replicated 3 or 4 times and were arranged in a randomized block design within each trial.” for “m^2.”
as §8

[8] = 3 applications 3.73/3.73/3.73 g ai/ha

SMILES: COc1cnc(OC)n2nc(NS(=O)(=O)c3c(OCC(F)F)cccc3C(F)(F)F)nc12 [Penoxsulam]
- % Visual Weed Control ([1]; 2 applications 5.6/5.6 g ai/ha): 64.4%
- % Visual Weed Control ([1]; 2 applications 7.5/7.5 g ai/ha): 68.3%
- % Visual Weed Control [1, 8]: 68.8%
- % Visual Weed Control ([1]; 3 applications 5/5/5 g ai/ha): 76.4%
- % Visual Weed Control ([2]; 2 applications 5.6/5.6 g ai/ha): 92.4%
- % Visual Weed Control ([2]; 2 applications 7.5/7.5 g ai/ha): 96.25%
- % Visual Weed Control [2, 8]: 90.15%
- % Visual Weed Control ([2]; 3 applications 5/5/5 g ai/ha): 93.25%
- % Visual Weed Control ([3]; 2 applications 5.6/5.6 g ai/ha): 87.3%
- % Visual Weed Control ([3]; 2 applications 7.5/7.5 g ai/ha): 87.9%
- % Visual Weed Control [3, 8]: 95.9%
- % Visual Weed Control ([3]; 3 applications 5/5/5 g ai/ha): 96.7%
- % Visual Weed Control ([4]; 2 applications 5.6/5.6 g ai/ha): 100%
- % Visual Weed Control ([4]; 2 applications 7.5/7.5 g ai/ha): 100%
- % Visual Weed Control [4, 8]: 100%
- % Visual Weed Control ([4]; 3 applications 5/5/5 g ai/ha): 100%
- % Visual Weed Control ([5]; 2 applications 5.6/5.6 g ai/ha): 50%
- % Visual Weed Control ([5]; 2 applications 7.5/7.5 g ai/ha): 100%
- % Visual Weed Control [5, 8]: 60%
- % Visual Weed Control ([5]; 3 applications 5/5/5 g ai/ha): 100%
- control of undesirable vegetation (undesirable vegetation): good control of undesirable vegetation
- effect on root yield [6]: no deleterious effect on root yield
- Average number of leaves (measured 21 DAAC) Average [7]: 7 a
- crop tolerance (chicory): commercially acceptable crop tolerance
- visible crop injury (chicory): some visible crop injury
